Laboratory results reported in US12508323B2, “Method of treatment of colorectal, breast and lung cancer with metal containing immune agonist complexes” (HANGZHOU XINGAO BIOTECHNOLOGY CO., LTD., priority 2020, dated 2025).

Columns and labels:
amyloid plaques = assay: Thioflavin S staining of brain amyloid plaques in AD mice; assay type: in vivo; settings: 10 mg/kg i.p., 60 days of administration
Description: Seven groups of AD mice in the above examples were tested in view of reduction of amyloid plaques in the brains of AD mice after 60 days of administration. The experiment was a thioflavin S staining experiment, and the experimental procedures were described below. 60 days after drug administration, brain tissue of mice was taken, fixed, embedded with paraffin, sectioned, de-waxed with xylene, dehydrated with ethanol gradient, and rinsed with TBS solution three times. After that, 0.3% thioflavin S (dissolved in 50% ethanol) was dropped on the tissue followed by incubation for 10 min at room temperature, rinsing with 50% ethanol three times, rinsing with TBS solution, drying in the shade, and sealing. Then the issue was examined by laser confocal microscopy (Leica, Germany) to detect the changes in the amount of amyloid plaque deposition in the brain of AD mice.

[1] = tested on: dendritic cell DCs and T cells; assay: Activation of immune cells (flow cytometry of spleen and lung cells); assay type: in vivo, mice; settings: 14 days after immunization, mouse spleen and lung tissues
Description: Mice were raised, immunized with virus infection, and subjected to blood collection, as the same as Example 3. Isotype control nanobody was purchased from eBiosciences; antibody magnetic beads were purchased from Militeny Biotech; and flow cytometer was purchased from BD company. 14 days after immunization, mouse spleen and lung tissues were taken, ground and pounded separately, filtered with a 40-μm filter, and centrifuged at 1000 rpm for 10 min to separate unlysed immune cells. The DC cells (CD40\CD80\CD86\MHCII), T cells and (CD8+) cells were separated by the antibody magnetic beads, and added with the corresponding FAC nanobody (diluted with FACS buffer). As a negative control, the isotype control nanobody was added into the DC cells followed by incubation for 1 h, centrifugation, and rinsing with PBS. After that, the samples were analyzed by the flow cytometry to select the appropriate cells for determination of fluorescence intensity (MFI), and the results were shown in Table 8.

TREM2 = TREM2 expression in brain tissues of AD mice; assay type: in vivo; settings: 10 mg/kg i.p., 60 days of administration
From the text: ELISA kits were purchased from Cloud Clone. Flow cytometry nanobodies were purchased from eBiosciences. RT-PCR reagents were purchased from Takara. Immune fluorescence and immune histochemistry nanobodies were purchased from Abcam. Other reagents were purchased from Sigma-Aldrich. Primer synthesis was done by Shanghai Biotechnology Co. Laser confocal microscope was purchased from Leica (Germany). 7500 quantitative PCR instrument was purchased from Applied Biosystems ABI (USA). Light microscope was purchased from Leica (Germany). Enzyme marker was purchased from Hangzhou Aosheng Company. Attune flow cytometer was purchased from Thermo Fisher Scientific. RT-PCR in vitro TREM2 content was determined, and the TREM2 primer sequences were as follows:
Whether mRNA levels of TREM2 in brain tissues of mice were altered after administration of the immune agonist and complexes thereof was determined.

[2] = tested on: lung cancer Lewis tumor line LL/2; assay: Subcutaneous transplantation tumor model, LL/2 in C57BL/6 mice; assay type: in vivo; settings: i.p. 10 mg/kg (nanobody 200 μg/mouse) once a day for 21 days
Description: Specific pathogen free (SPF)-grade BALB/C and C57BL/6 male mice, aged 7-8 weeks and weighing 20-22 g, were purchased from Shanghai Slac Laboratory Animal Co., Ltd (Laboratory animal quality certificate number: SCXK (Shanghai)2007-0005.
Mice were injected intraperitoneally with the immune agonist or complex with a dose of 10 mg/kg, or each injected intraperitoneally with 200 μg of the nanobody.
Administration route: intraperitoneal injection.
Frequency: once a day for consecutive 21 days.
Cancer cells were cultured, passaged, collected at the logarithmic phase of cells, and prepared into a cell suspension at a concentration of (1.0×10^7) per ml. Mice were injected with 0.2 ml of the cell suspension at the axilla of the right forelimb (cell number 2.0×10^6 cells/each), and were tumorigenic in about 8 days. These mice were randomly divided into 10 groups equally, namely, group A: negative control group (saline group), group B: positive control (cGAMP) group (dose: 10 mg/kg), group C: MncGAMP group (dose: 10 mg/kg), group D: anti-PD-L1 nanobody group, group E: anti-CD47 nanobody group, group F: anti-TfR1 nanobody group, group G: complex V group (dose: 10 mg/kg), group H: complex VI group (dose: 10 mg/kg), group I: complex IX group (dose: 10 mg/kg), and group J: complex VIII group (10 mg/kg). […]
The data were expressed as ×±s and processed by SPSS10.0 software. […]

## Nc1nc(=O)c2ncn(C3OC4COP(=O)(O)OC5C(COP(=O)(O)OC3C4O)OC(n3cnc4c(N)ncnc43)C5O)c2[nH]1 (stereo not shown) [cGAMP, 2′3′-cGAMP]
Amyloid plaques
  Average count points of fluorescence intensity of amyloid plaques in brain tissues of AD mice (field of view area): 1800 ± 160
[1]
  CD8 cells (%): 2.3 ± 0.2%
  CD40 cells (%): 122.6%
  CD80 cells (%): 115.5%
  CD86 cells (%): 18.3%
  MHCII cells (%): 218.4%
  T cells (%): 0.3 ± 0.2%
TREM2
  TREM2: 55.38 ± 0.27 pg/mg
[2]; n = 10, mean ± SD
  Average tumor weight: 1.138 ± 0.127 g
[2]; vs negative control tumor weight
  Average tumor inhibition rate (%): 60.0%
